How the values were obtained:
Experiment in all cases: Ray2010 Assay 74
[1] = biological target: T1, Gamma-aminobutyric acid receptor subunit alpha-1 (Homo sapiens, UniProt P14867)
T1 sequence (P14867 whole entry): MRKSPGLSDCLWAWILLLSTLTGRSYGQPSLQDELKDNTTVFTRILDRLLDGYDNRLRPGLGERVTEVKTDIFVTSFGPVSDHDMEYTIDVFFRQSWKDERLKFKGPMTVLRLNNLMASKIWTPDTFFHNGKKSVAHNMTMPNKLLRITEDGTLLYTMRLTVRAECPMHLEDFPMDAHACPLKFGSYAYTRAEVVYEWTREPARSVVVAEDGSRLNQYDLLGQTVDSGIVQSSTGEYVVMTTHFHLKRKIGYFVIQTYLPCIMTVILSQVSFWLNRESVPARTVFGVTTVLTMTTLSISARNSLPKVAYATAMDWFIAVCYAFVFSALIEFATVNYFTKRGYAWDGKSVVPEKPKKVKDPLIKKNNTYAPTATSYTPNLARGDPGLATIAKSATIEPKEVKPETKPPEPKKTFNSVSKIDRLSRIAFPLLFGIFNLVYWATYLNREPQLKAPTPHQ
Source text: (§1) Table S2 shows raw Ki data for the current study combined with data collected from the literature for the ten additional compounds.

[2] = biological target: T2, 5-hydroxytryptamine receptor 1A (Homo sapiens, UniProt P08908)
T2 sequence (P08908 whole entry): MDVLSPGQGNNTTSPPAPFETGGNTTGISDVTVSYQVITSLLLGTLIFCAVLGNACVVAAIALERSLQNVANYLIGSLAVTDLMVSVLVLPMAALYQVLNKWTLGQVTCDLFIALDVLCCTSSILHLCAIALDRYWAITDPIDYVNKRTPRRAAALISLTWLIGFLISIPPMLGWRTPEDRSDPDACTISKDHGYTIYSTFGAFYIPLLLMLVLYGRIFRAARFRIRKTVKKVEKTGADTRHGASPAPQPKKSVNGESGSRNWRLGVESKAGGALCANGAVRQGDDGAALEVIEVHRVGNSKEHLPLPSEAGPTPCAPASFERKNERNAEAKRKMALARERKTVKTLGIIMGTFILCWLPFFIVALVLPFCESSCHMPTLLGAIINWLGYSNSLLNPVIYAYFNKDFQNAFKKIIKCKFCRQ
Source text: as §1

[3] = biological target: Delta-type opioid receptor (Homo sapiens, UniProt P41143)
Source text: as §1

Mu-type opioid receptor = Mu-type opioid receptor (Homo sapiens, UniProt P35372)
Source text: as §1

[4] = biological target: Sodium-dependent serotonin transporter (Homo sapiens, UniProt P31645)
Source text: as §1

[5] = biological target: 5-hydroxytryptamine receptor 1E (Homo sapiens, UniProt P28566)
Source text: as §1

[6] = biological target: 5-hydroxytryptamine receptor 1D (Homo sapiens, UniProt P28221)
Source text: as §1

[7] = biological target: 5-hydroxytryptamine receptor 2B (Homo sapiens, UniProt P41595)
Source text: as §1

[8] = biological target: 5-hydroxytryptamine receptor 2A (Homo sapiens, UniProt P28223)
Source text: as §1

D(4) dopamine receptor = biological target: T3, D(4) dopamine receptor (Homo sapiens, UniProt P21917)
T3 sequence (P21917 whole entry): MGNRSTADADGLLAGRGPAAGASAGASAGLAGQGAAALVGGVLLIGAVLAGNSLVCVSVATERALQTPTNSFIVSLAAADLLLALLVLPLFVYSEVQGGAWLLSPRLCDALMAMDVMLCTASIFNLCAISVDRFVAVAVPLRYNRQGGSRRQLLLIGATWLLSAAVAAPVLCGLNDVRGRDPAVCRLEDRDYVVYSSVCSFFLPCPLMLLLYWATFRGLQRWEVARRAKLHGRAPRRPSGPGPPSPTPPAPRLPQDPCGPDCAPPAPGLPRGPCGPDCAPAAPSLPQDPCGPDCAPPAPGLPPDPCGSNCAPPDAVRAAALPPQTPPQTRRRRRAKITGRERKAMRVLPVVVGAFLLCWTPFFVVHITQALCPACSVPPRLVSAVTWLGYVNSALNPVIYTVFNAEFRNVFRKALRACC
Source text: as §1

[9] = biological target: Glutamate receptor ionotropic, NMDA 2A (Homo sapiens, UniProt Q12879)
Source text: as §1

[10] = biological target: T4, 5-hydroxytryptamine receptor 3A (Homo sapiens, UniProt P46098)
T4 sequence (P46098 whole entry): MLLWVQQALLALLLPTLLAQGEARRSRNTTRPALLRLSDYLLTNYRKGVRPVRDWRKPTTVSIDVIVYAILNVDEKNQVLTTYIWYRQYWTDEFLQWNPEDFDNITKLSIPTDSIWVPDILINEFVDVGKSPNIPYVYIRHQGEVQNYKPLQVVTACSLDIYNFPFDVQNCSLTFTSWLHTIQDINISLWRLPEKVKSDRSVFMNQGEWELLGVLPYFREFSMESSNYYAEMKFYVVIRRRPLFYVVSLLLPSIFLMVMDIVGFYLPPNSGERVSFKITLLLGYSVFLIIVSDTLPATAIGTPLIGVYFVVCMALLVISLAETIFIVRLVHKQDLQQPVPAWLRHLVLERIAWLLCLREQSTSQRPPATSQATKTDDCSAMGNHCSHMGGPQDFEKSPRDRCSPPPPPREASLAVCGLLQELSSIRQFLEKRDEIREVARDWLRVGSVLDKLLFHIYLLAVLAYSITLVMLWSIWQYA
Source text: as §1

Histamine H4 receptor = Histamine H4 receptor (Homo sapiens, UniProt Q9H3N8)
Source text: as §1

[11] = biological target: 5-hydroxytryptamine receptor 6 (Homo sapiens, UniProt P50406)
Source text: as §1

[12] = biological target: T5, Alpha-2A adrenergic receptor (Homo sapiens, UniProt P08913)
T5 sequence (P08913 whole entry): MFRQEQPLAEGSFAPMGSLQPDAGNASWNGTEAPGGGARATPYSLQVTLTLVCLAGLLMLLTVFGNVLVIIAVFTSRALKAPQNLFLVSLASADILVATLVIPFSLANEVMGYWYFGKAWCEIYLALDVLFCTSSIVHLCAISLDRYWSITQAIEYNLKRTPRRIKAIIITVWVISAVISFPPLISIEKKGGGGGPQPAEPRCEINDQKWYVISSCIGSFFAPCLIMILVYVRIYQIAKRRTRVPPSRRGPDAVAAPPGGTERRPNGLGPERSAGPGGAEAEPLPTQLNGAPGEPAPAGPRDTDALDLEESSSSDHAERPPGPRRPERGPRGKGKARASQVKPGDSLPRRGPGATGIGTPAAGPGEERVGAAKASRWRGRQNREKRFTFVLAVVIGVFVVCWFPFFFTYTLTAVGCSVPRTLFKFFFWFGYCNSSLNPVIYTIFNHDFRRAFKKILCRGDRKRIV
Source text: as §1

5-hydroxytryptamine receptor 2A, sequence (P28223 whole entry): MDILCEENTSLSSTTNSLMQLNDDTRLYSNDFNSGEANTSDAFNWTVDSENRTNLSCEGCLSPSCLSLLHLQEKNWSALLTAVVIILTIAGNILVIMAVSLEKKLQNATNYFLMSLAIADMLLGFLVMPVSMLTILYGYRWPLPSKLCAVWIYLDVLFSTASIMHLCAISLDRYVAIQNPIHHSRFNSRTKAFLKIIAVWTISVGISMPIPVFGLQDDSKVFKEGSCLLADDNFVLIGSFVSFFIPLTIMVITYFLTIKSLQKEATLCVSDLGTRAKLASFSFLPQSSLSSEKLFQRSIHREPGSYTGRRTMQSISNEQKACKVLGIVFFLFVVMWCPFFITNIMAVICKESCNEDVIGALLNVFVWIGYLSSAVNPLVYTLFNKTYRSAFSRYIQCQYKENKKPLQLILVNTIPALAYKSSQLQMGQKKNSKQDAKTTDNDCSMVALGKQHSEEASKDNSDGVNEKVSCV
Sodium-dependent serotonin transporter, sequence (P31645 whole entry): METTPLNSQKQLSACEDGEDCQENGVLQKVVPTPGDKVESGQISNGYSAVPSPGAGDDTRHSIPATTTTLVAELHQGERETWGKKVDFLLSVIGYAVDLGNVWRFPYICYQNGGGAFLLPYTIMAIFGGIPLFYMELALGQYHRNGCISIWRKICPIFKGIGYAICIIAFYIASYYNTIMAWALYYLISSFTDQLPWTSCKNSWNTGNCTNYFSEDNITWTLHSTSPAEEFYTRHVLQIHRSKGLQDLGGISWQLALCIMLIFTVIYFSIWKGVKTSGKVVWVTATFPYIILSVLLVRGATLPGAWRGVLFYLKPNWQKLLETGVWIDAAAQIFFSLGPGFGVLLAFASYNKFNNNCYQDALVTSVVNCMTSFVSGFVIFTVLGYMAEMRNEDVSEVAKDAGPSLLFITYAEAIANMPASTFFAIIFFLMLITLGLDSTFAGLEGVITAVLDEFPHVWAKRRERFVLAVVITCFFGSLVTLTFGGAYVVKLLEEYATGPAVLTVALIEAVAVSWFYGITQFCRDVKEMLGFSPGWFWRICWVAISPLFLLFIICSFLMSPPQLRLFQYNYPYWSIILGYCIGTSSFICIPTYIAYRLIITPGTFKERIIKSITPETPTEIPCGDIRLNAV
Glutamate receptor ionotropic, NMDA 2A, sequence (Q12879 whole entry): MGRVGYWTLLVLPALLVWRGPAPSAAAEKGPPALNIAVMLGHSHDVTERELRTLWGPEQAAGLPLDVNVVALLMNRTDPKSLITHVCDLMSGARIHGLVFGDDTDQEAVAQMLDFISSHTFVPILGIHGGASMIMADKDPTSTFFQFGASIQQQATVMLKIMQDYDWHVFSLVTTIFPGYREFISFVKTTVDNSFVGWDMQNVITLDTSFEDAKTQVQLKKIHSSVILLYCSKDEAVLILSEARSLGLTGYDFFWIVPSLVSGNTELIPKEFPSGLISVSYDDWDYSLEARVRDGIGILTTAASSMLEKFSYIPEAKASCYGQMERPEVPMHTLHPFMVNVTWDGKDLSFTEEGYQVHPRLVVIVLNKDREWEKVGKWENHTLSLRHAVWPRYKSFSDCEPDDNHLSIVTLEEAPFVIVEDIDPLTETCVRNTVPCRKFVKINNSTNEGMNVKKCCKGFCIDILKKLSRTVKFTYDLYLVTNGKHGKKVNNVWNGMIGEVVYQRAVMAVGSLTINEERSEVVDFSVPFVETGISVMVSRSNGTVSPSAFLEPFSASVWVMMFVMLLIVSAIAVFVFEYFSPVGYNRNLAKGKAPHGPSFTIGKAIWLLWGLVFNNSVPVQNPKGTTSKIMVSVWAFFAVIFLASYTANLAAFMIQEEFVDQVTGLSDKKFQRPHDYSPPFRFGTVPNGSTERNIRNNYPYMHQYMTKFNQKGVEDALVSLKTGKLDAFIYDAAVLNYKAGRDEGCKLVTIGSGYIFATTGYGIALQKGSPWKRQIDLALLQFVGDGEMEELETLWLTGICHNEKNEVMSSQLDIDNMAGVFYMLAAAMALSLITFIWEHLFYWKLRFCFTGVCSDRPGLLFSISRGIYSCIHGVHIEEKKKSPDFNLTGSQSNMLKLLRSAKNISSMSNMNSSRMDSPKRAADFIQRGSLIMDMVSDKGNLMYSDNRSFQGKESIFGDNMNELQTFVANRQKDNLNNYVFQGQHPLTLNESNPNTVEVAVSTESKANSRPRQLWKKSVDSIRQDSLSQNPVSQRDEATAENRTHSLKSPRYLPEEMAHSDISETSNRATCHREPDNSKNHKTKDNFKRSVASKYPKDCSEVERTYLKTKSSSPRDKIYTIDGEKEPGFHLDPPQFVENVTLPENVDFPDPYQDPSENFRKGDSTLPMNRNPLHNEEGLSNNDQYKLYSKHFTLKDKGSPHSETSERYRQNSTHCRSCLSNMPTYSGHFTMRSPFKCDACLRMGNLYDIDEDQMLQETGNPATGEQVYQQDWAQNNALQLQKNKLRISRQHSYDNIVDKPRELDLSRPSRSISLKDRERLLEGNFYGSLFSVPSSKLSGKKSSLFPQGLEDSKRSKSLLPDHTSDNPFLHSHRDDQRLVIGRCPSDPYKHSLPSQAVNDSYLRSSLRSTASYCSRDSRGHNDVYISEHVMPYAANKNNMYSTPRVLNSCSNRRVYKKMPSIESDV
Histamine H4 receptor, sequence (Q9H3N8 whole entry): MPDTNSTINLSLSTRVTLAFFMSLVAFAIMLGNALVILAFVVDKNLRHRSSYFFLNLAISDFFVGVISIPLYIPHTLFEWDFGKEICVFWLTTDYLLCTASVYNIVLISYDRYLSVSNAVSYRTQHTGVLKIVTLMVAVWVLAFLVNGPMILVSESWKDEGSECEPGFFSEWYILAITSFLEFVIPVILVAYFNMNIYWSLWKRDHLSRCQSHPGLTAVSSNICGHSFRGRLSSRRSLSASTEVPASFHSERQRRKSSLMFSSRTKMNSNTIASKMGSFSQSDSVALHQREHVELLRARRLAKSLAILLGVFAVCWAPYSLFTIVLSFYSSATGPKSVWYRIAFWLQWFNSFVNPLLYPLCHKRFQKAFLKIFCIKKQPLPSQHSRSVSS
5-hydroxytryptamine receptor 1D, sequence (P28221 whole entry): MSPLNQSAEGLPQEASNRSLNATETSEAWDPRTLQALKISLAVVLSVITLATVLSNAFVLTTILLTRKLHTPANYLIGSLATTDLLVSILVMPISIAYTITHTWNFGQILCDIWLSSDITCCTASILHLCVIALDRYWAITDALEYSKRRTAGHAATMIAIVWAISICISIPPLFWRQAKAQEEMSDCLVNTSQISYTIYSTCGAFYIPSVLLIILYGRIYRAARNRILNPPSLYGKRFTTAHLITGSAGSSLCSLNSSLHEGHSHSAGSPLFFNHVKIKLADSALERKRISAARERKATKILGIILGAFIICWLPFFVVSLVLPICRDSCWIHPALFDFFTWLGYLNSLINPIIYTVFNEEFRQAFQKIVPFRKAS
Mu-type opioid receptor, sequence (P35372 whole entry): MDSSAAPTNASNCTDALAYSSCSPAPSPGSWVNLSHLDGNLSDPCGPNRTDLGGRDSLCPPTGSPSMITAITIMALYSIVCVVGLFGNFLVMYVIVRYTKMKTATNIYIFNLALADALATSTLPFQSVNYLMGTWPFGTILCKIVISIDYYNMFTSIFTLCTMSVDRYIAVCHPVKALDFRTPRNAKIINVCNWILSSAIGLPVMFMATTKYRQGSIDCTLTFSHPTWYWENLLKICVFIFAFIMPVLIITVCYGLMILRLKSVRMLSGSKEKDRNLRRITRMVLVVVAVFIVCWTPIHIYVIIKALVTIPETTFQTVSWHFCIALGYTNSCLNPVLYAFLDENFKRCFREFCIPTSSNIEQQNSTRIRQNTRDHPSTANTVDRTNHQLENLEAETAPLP
5-hydroxytryptamine receptor 1E, sequence (P28566 whole entry): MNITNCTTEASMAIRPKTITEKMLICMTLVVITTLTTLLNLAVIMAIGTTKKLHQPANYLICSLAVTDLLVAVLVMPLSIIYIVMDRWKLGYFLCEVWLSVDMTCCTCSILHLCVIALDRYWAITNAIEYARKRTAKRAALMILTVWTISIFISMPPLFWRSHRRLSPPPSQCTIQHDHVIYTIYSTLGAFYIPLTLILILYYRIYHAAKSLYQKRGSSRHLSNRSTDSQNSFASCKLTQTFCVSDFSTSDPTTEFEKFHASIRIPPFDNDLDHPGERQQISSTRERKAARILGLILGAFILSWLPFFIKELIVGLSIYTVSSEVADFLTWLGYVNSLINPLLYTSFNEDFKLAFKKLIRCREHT
5-hydroxytryptamine receptor 2B, sequence (P41595 whole entry): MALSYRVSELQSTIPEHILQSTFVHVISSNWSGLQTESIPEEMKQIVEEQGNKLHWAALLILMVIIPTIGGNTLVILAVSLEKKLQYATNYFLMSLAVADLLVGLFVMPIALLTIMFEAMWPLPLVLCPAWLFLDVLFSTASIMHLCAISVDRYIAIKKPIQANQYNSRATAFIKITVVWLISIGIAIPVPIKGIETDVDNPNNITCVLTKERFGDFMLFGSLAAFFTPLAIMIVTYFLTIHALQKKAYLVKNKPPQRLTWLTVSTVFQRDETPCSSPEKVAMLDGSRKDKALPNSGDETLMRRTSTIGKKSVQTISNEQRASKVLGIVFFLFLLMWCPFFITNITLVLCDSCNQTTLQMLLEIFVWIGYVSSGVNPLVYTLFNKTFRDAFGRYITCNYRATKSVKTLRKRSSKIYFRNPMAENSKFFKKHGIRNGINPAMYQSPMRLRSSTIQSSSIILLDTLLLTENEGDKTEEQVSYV
5-hydroxytryptamine receptor 6, sequence (P50406 whole entry): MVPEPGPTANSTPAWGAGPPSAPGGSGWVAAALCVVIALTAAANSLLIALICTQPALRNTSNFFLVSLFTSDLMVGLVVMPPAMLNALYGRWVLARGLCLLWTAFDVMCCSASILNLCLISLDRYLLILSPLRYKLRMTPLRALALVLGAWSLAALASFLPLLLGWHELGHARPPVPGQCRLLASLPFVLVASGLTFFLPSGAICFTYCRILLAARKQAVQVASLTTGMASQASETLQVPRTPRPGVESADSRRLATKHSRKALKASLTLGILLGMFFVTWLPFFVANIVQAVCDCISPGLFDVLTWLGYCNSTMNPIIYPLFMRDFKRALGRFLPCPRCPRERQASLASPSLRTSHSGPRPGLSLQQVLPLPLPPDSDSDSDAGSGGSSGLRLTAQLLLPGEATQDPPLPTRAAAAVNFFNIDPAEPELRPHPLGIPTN

Compound	Ki [1]	Ki [2]	Ki [3]	Ki (Mu-type opioid receptor)	Ki [4]	Ki [5]	Ki [6]	Ki [7]	Ki [8]	Ki (D(4) dopamine receptor)	Ki [9]	Ki [10]	Ki (Histamine H4 receptor)	Ki [11]	Ki [12]
CCCN(CCC)CCc1c[nH]c2ccccc12 [dpt]	> 10 µM	31.8 nM	> 10 µM	> 10 µM	157 nM	2340 nM	619 nM	42 nM	2580 nM	2010 nM	> 10 µM	> 10 µM	> 10 µM	4.54 µM	458 nM
CAS_82830-44-2::(2R)-1-(4-iodo-2,5-dimethoxyphenyl)propan-2-amine::DOI,(-)::US20250270173, Compound DOI	> 10 µM	2220 nM	> 10 µM	> 10 µM	685 nM	1010 nM	458 nM	336 nM	165 nM	> 10000 nM	> 10 µM	> 10 µM	> 10 µM	2.11 µM	73.7 nM
